Data set [1] in a line: Half-life in human. In kind it is ADME.
Data set [2] can be described thus: Tmax in human. Format: ADME.
Data set [3] is described as follows: Oral bioavailability in rat. In kind it is ADME, organism-based. Conditions: in vivo.
Data set [4] is described as follows: Oral bioavailability in monkey. Format: ADME, organism-based, Macaca mulatta. Conditions: rhesus monkey, in vivo.
Data set [5] can be described thus: Tmax in rhesus monkey at 40 mg/kg, po. The conditions noted are these: in vivo. Format: ADME, organism-based, Macaca mulatta.
Data set [6] is described as follows: Terminal half-life in rhesus monkey at 40 mg/kg, po. Format: ADME, organism-based, Macaca mulatta. Conditions: in vivo, read-out: beta t1/2 (converted).
Data set [7] is described as follows: Stability of the compound in 20% aqueous dioxane solution at 30 degreeC assessed as compound hydrolysis by measuring rate constant. In kind it is physicochemical. The conditions noted are these: buffer.
Data set [8] in a line: Stability of the compound in 50% dioxane solution at 30 degreeC assessed as compound hydrolysis by measuring rate constant. In kind it is physicochemical.
Data set [9] is described as follows: Aqueous stability of the compound at pH 7 assessed as half-life. In kind it is physicochemical. The conditions noted are these: aqueous solution.
The nature of data set [10]: Stability of the compound assessed as compound hydrolysis by measuring relative rate constant by titrimetric method. In kind it is physicochemical.
A short description of data set [11]: Oral bioavailability in rat relative to urinary excretion. Format: ADME, organism-based. Conditions: urine.
Data set [12] can be described thus: Oral bioavailability in rat relative to plasma exposure. Format: ADME, organism-based.
In data set [13] the test system is HEp-2. The experiment in a line: Anticancer activity against human HEp-2 cells. Format: functional, cell-based.
Data set [14] concerns CCRF-CEM. The experiment in a line: Anticancer activity against human CCRF-CEM cells. Format: functional, cell-based.
For data set [15], the system named is K562. The experiment in a line: Anticancer activity against human K562 cells. In kind it is functional, cell-based.
Data set [16] has as its system L1210. The data set is described as follows: Anticancer activity against mouse L1210 cells. Format: functional, cell-based.
Data set [17] concerns Candida albicans. The experiment in a line: Antifungal activity against Candida albicans GS. In kind it is functional, organism-based.
For data set [18], the system named is Candida albicans. The data set is described as follows: Fungicidal activity against Candida albicans. Format: functional.
Data set [19] in a line: Clearance in Chimpanzee at 0.5 mg/kg, iv bolus injection. In kind it is ADME, organism-based, Pan troglodytes. The conditions noted are these: in vivo.
Data set [20] in a line: Clearance in Chimpanzee at 0.5 mg/kg administered as iv infusion. In kind it is ADME, organism-based, Pan troglodytes. The conditions noted are these: in vivo.
Data set [21] in a line: in vivo. Conditions: chimpanzee, iv, 0.5 mg/kg.
Data set [22] can be described thus: in vivo. The conditions noted are these: chimpanzee, iv, 0.5 mg/kg. The source holds these as a separate data set.
A short description of data set [23]: Half-life of the compound in aqueous solution at pH 6.0. In kind it is physicochemical.
For data set [24], the target named is T1, Neutrophil elastase (Homo sapiens) (UniProt P08246).
T1 sequence (whole entry): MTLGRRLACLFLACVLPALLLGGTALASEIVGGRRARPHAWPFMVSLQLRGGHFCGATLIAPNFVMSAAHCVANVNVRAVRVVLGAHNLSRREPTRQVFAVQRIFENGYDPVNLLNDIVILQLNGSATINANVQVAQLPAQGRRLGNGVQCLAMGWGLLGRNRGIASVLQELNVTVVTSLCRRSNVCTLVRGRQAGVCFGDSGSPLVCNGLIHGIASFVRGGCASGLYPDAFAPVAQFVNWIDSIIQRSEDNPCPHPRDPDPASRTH
The experiment in a line: Time-dependent inhibition of human leukocyte elastase assessed as observed binding constant.

Data set [25] can be described thus: Terminal half-life in iv dosed rat. In kind it is ADME, organism-based. Conditions: in vivo, read-out: beta t1/2 (converted).
Data set [26] in a line: Terminal half-life in iv dosed rhesus monkey. In kind it is ADME, organism-based, Macaca mulatta. The conditions noted are these: in vivo, read-out: beta t1/2 (converted).

This is an account of results in ChEMBL document CHEMBL5244275, “Geminal Diheteroatomic Motifs: Some Applications of Acetals, Ketals, and Their Sulfur and Nitrogen Homologues in Medicinal Chemistry and Drug Design” (J Med Chem, 2021).

pIC50: −log10 of the molar value.

By Tmax is commonly meant the time from dosing to the highest level. A word on the bioavailability: it is the share of a dose that reaches the circulation, judged against a reference dose that is usually intravenous. As a reminder, the pIC50 is the IC50 on a negative log10 scale, so that one unit is a factor of ten. One may read the MFC as the lowest tested concentration that kills the fungus rather than only halting it. The term clearance denotes the volume of plasma or blood freed of the substance per unit of time.

`CN1CCN(C(=O)O[C@H]2c3nccnc3C(=O)N2c2ccc(Cl)cn2)CC1` [ESZOPICLONE]: the half-life in [1] is 5 h. Further, the Tmax in [2] is 1 h.

As to `CCC[C@@H](NC(=O)N1C(=O)C(CC)(CC)[C@@H]1Oc1ccc(C(=O)N2CCN(C)CC2)cc1)c1ccc2c(c1)OCO2`, the results for the bioavailability in data set [3] and in data set [4] were 65% and 39%, respectively. Moreover, the Tmax in [5] was 8 h. Besides, the half-life in data set [6] is 6 h.

Consider `COc1ccc(C2(c3ccc(OC)cc3)OCCO2)cc1`, for which the K in data set [7] is given as 8.5 10^-1/M/s; in data set [8], 1.2 10^-1/M/s.

As to `CC1(C)S[C@@H]2[C@H](NC(=O)[C@H](N)c3ccccc3)C(=O)N2[C@H]1C(=O)O` [AMPICILLIN], the half-life in data set [9] is 0.25 h.

`CC1(C)OCCO1`: in data set [10], the K is on record as 5.4 10^4No_unit.

With `Nc1ccn([C@@H]2CO[C@H](CO)O2)c(=O)n1` [TROXACITABINE], the bioavailability came to 41% in [11] and 37% in data set [12].

Consider `Nc1nc(F)nc2c1ncn2[C@@H]1O[C@H](COP(=O)(O)O)[C@@H](O)[C@@H]1O` [FLUDARABINE PHOSPHATE], for which the pIC50 in [13] was 5.05; in data set [14], 6.40; in [15], 6.82; in data set [16], 5.52.

`CC[C@H](C)C[C@H](C)CCCCCCCCC(=O)N[C@H]1C[C@@H](O)[C@@H](OCCN)NC(=O)[C@@H]2[C@@H](O)CCN2C(=O)[C@H]([C@H](O)CCN)NC(=O)[C@H]([C@H](O)[C@@H](O)c2ccc(O)cc2)NC(=O)[C@@H]2C[C@@H](O)CN2C(=O)[C@H]([C@@H](C)O)NC1=O` gave a pIC50 in data set [17] of 9.00. The MFC in [18] was under 0.06 µg/mL. For the same compound, the clearance in [19] was found to be 0.58 mL/min/kg; in [20], 0.56 mL/min/kg. The half-life was 2.8 h in data set [21] and 2.6 h in data set [22].

The compound `CO[C@@]1(NC(=O)CCC[C@@H](N)C(=O)O)C(=O)N2C(C(=O)O)=C(COC(N)=O)CS[C@@H]21` gave a half-life in [23] of 459 h.

Take `CCC[C@@H](NC(=O)N1C(=O)C(CC)(CC)[C@@H]1Oc1ccc(CC(=O)O)cc1)c1ccc(C)cc1`: the bioavailability in data set [3] worked out at 100%; in data set [4], 23%. Moreover, in data set [24], the K was 6.2 10^5/M/s. Moreover, the half-life is 2.3 h in [25], 5.8 h in data set [26] and 6 h in data set [6].
